Measured values: patent US6365746B1, “Stable and water soluble bis Au(I) complexes and their synthesis” (Eastman Kodak Company, priority 1997, dated 2002)

Key:
Format in all cases: physicochemical
[1] = Stability study of aqueous solution monitored by UV-visible spectroscopy
Method: Stability Study of Compound S. To a 1000 mL borosilicate volumetric flask was added 14.7 g of Compound S and water. An aliquot of the gold solution was placed into a quartz cuvette and the keeping characteristics of the solution were monitored using UV-visible spectroscopy over the course of 25 days. A compound, TTT, a known sensitizer having a mesoionic heterocycle was similarly monitored.

[2] = Stability in 0.025 N H2SO4 at room temperature (gold precipitation); details: 200 mg in 600 mL 0.025 N H2SO4, room temperature, after two weeks (duration of the study)
Method: Stability of Compound S versus Compound TTT. Two different batches of Compound TTT and Compound S, each weighing 200 mg, were dissolved in 600 mL of a 0.025 N H2SO4. The solutions were allowed to stand at room temperature. One of the solutions containing Compound TTT had brownish colloidal gold precipitated within 5 days and the other batch had purplish gold specks after 7 days.

[3] = Solubility study in water (gravimetric, filtrate residue); details: stirred in the dark 1 hr, filtered, duplicate
Method: Solubility Study of compound S.5 H2O. To a 10 mL borosilicate volumetric flask was added 0.25 g of Compound S and a stir bar. Water was added to the 10 mL mark and the suspension was stirred in the dark for 1 hr. The suspension was filtered through a 0.25 μm syringe filter and 3.00 mL of the filtrate was placed into a tared porcelain dish (dried by heating at 125° C. for 12 hours followed by cooling to ambient temperature in a CaCl2 desiccator). The sample was placed into a vacuum desiccator and subjected to vacuum for ca. 60 hours. Finally, the dish and residue were weighed and the mass of the residue was determined by difference.

Row | Substance | Change in Absorbance @ 235 nm ([1]; day 1) | Change in Absorbance @ 235 nm ([1]; day 4) | Change in Absorbance @ 235 nm ([1]; day 8) | Change in Absorbance @ 235 nm ([1]; day 13) | Change in Absorbance @ 235 nm ([1]; day 20) | Change in Absorbance @ 235 nm ([1]; day 25) | gold precipitate from the solution [2] | average solubility [3]
1 | bis(1,4,5-trimethyl-1,2,4-triazolium-3-thiolate) gold (I) tetrafluoroborate [TTT, reference compound] | 0 | 0.0222 | 0.0653 | 0.0868 | 0.1108 | 0.1340 | – | –
2 | potassium bis(1-[3-(2-sulfonatobenzamido)phenyl]-5-mercaptotetrazole potassium salt) aurate(I) pentahydrate [Compound S] | 0 | 0.0013 | 0.0015 | 0.0058 | 0.0070 | 0.0064 | no gold precipitate | 33.6 g/L
